In patent US9932300B2, “N,N′-diarylurea compounds and N,N′-diarylthiourea compounds as inhibitors of translation initiation” (President and Fellows of Harvard College, priority 2009, dated 2018):

Test system: eIF2-GTP-Met-tRNAi ternary complex
Assay: Ternary complex assay (dual luciferase, firefly/renilla ratio) in stable KLN-tTA/pBISA-DL(ATF-4) cells; HTS and hit confirmation
Format: cell-based, mouse
Parameters: Activity 10 uM / Activity 2.5 uM / Activity 5 uM: unit not given here
Conditions: confirmed hits of the screen (Table 5); for Activity 2.5 uM: compound at 2.5 uM; for Activity 10 uM: compound at 10 uM; for Activity 5 uM: compound at 5 uM

Structure (SMILES) | Activity 2.5 uM | Activity 10 uM | Activity 5 uM
CSc1ccc(NC(=O)Nc2cccc(F)c2)cc1 [Compound 205787] | 1.79 | 4.39 | 
CSc1ccc(NC(=O)Nc2ccccc2F)cc1 [Compound 205789] | 3.99 | 7.26 | 
CO[C@H]1/C=C/O[C@@]2(C)Oc3c(C)c(O)c4c(O)c(c(/C=N/N5CC(C)(C)N(Cc6ccccc6)CC5(C)C)c(O)c4c3C2=O)NC(=O)/C(C)=C\C=C\[C@H](C)[C@H](O)[C@@H](C)[C@@H](O)[C@@H](C)[C@H](OC(C)=O)[C@@H]1C [Compound 208394] |  | 13.4 | 1.5
COc1ccc(N=Nc2cc(C)c(C)cc2O)cc1 [Compound 209832] |  | 4.7795 | 9.509
O=[N+]([O-])c1ccc(OCc2ccc(CBr)cc2)c(Cl)c1 [Compound 212379] | 2.28 | 4.4 | 
Cc1ccnc(NC(=O)Nc2cc(F)ccc2F)c1 [Compound 213710] |  | 5.091 | 4.183
O=C(Nc1ccc(F)cc1)OCC1CC2C=CC1C2 (stereo not drawn) [Compound 213848] |  | 3.5355 | 4.586
O=C(Nc1ccc(CCO)cc1)Nc1ccccc1F [Compound 214004] |  | 6.0655 | 5.299
O=C(Nc1ccc2ccccc2c1)c1cccc(F)c1 [Compound 214029] |  | 6.8665 | 5.245
O=C(Nc1ccc2ccccc2c1)c1ccc(F)cc1 [Compound 214041] |  | 8.374 | 6.705
CCCCCCOC(=O)Nc1cccc(O)c1 [Compound 222612] |  | 2.88 | 4.521
O=C(O)c1ccc(/C=N\Nc2ccccc2)cc1 [Compound 227290] |  | 6.8065 | 5.935
O=S(=O)(Cc1ccccc1)CC(Br)CBr (stereo not drawn) [Compound 229344] | 1.28 | 4.4 | 
O=C1c2ccccc2C(=O)c2c1ccc1c2CCCC1 [Compound 230359] |  | 8.3955 | 4.465
CN(C)c1ccc(/C=N/Nc2ccccc2)cc1 [Compound 230415] |  | 3.3005 | 2.468
[C-]#[N+]C1CCCCC1.[C-]#[N+]C1CCCCC1.[C-]#[N+]C1CCCCC1.[C-]#[N+]C1CCCCC1.[C-]#[N+]C1CCCCC1.[C-]#[N+]C1CCCCC1.[Mn] [Compound 231980] |  | 3.8 | 4.1
COc1c(O)c2c(=O)cc3c4c5c(cc(=O)c6c(O)c(OC)c(CC(C)O)c(c(c1CC(C)O)c24)c65)OCO3 (stereo not drawn) [Compound 234486] | 10 |  | 
[Br][Ni][Br].c1ccc(CN2CCN(Cc3ccccc3)CCN(Cc3ccccc3)CCN(Cc3ccccc3)CC2)cc1 [Compound 236237] | 1.78 | 57.44 | 
CN(C)c1ccc(C(=N)Cc2ccc3ccccc3n2)cc1 [Compound 240575] |  | 7.0215 | 6.23
CN(C)c1ccc(C(O)Cc2ccc3ccccc3n2)cc1 (stereo not drawn) [Compound 240576] |  | 6.2885 | 5.47
CN(C)c1ccc(C(=O)Cc2ccc3ccccc3n2)cc1 [Compound 240577] | 2.68 | 4.63 | 

Structure (SMILES) | Activity 2.5 uM | Activity 10 uM | Activity 5 uM
CN(C)c1ccc(-c2nc3ccccn3c2N)cc1 [Compound 240724] |  | 4.257 | 3.594
CN(C)c1ccc(N=Nc2ccc(C(=O)Cl)cc2)cc1 [Compound 240870] |  | 7.2395 | 6.352
C=C1C(=O)OC2CCCCC3OC3C12 (stereo not drawn) [Compound 258618] | 0.85 | 3.2 | 
[O-][n+]1c2ccccc2nn1-c1ccc(N(CCCl)CCCl)cc1 [Compound 260514] | 1.94 | 3.87 | 
CNC(=S)N/N=C/c1nccc(-c2ccccc2)c1C [Compound 262421] | 24.56 | 107.79 | 
CCCCCCCCCCCCCCCC[N+](C)(C)Cc1ccccc1.[Br-] [Compound 263517] | 1.39 | 8.78 | 
CC(=O)OCC1OC(n2nnc(CCl)c2CCl)C(OC(C)=O)C(OC(C)=O)C1OC(C)=O (stereo not drawn) [Compound 268393] | 0.71 |  | 
CN(C)c1ccc(/C=C/c2ccc3ccccc3[n+]2[O-])cc1 [Compound 268776] |  | 5.5035 | 5.767
Cc1cc(OC(=O)Nc2ccc(Cl)c([N+](=O)[O-])c2)c(Cl)cc1Br [Compound 270151] | 1.24 | 3.16 | 
COc1cc2c(cc1O)C(=O)c1[nH]c3ccccc3c1CC2 [Compound 271272] | 2.76 | 4.93 | 
O=C(OCC1OC(n2cc[n+]([O-])nc2=O)C(OC(=O)c2ccccc2)C1OC(=O)c1ccccc1)c1ccccc1 (stereo not drawn) [Compound 276293] | 20.35 |  | 
O=C(Nc1ncc([N+](=O)[O-])s1)c1cccnc1 [Compound 276393] |  | 8.706 | 6.644
CCOC(=O)[C]1([Hg][CH3])N=NC(C(=O)OC)=C1C(=O)OC (stereo not drawn) [Compound 278352] | 3.81 |  | 
Cc1ccc(S(=O)(=O)C(c2ccccc2)C(Br)C(=O)c2ccccc2)cc1 (stereo not drawn) [Compound 280894] | 2.06 |  | 
O=C1c2ccccc2C(=O)c2c1oc1c2ccc2ccccc21 [Compound 281986] | 3.11 | 3.37 | 
Br[CH](Br)[Hg][c]1ccccc1 [Compound 286678] | 1.72 |  | 
CCCCC(OC(=O)c1ccccc1)c1cc(OC(=O)c2ccccc2)c2c(c1OC(=O)c1ccccc1)CC(C)=C(C)C2 (stereo not drawn) [Compound 287407] | 3.93 | 36.2 | 
CC1=C(C)CC2C(=O)C(C(O)CC(C)C)=CC(=O)C2C1 (stereo not drawn) [Compound 287413] | 0.68 | 17.06 | 
CCN1/C(=C/C=C2\CCC(/C=C/c3sc4ccc(Cl)cc4[n+]3CC)=C2N(c2ccccc2)c2ccccc2)Sc2ccc(Cl)cc21.[O-][Cl+3]([O-])([O-])[O-] [Compound 290436] |  | 20.4 | 3.8
CCC[CH2][Sn]1([CH2]CCC)[O]C2C(CO)OC(n3c(Br)c(C#N)c4c(N)ncnc43)C2[O]1 (stereo not drawn) [Compound 291104] | 1.4 | 3.83 | 
c1ccc2c(c1)cnc1c3ccccc3nn21 [Compound 292587] |  | 3.294 | 2.577

Structure (SMILES) | Activity 2.5 uM | Activity 10 uM | Activity 5 uM
CN(C)c1cc(=O)c2c(ccc3ccccc32)o1 [Compound 292795] |  | 4.66 | 3.69
CCN(C)c1cc(=O)c2c(ccc3ccccc32)o1 [Compound 292796] |  | 5.6 | 4.759
S=C(N=Nc1ccccc1)N[N-]c1ccccc1.S=C(N=Nc1ccccc1)N[N-]c1ccccc1.[Zn+2] [Compound 293939] | 1.54 | 7.78 | 
CCOC(=C\C=C\C1=[N+](C)c2ccccc2C1(C)C)/C=C/C=C1/N(C)c2ccccc2C1(C)C.F[B-](F)(F)F [Compound 295477] | 6.24 | 9.07 | 
CCCCCCCCCCCCCCCC[N+](C)(C)CCOC(C)=O.O=S(=O)([O-])C(F)(F)F [Compound 297153] | 0.95 | 4.39 | 
CCCCCCCCCCCCCCCC[N+](C)(C)CCN=[N+]=[N-].O=S(=O)([O-])C(F)(F)F [Compound 297154] | 1.24 | 5.62 | 
Br.CCCCCCCCCCCCCCCC[N+](C)(C)CCN.[Br-] [Compound 297156] | 1.08 | 5.15 | 
CCCCC(Oc1cc(C(C)(C)C)c(O)c(C(C)(C)C)c1)C(=O)O (stereo not drawn) [Compound 297621] | 18.95 |  | 
O=C(NC(=O)c1c(F)cccc1F)Nc1nc2ccccc2s1 [Compound 298153] | 3.67 | 3.43 | 
c1ccc(-c2ccc(-c3csnn3)cc2)cc1 [Compound 298243] |  | 3.327 | 2.747
CN(C)c1ccc(N=Nc2ccc3c4c(cccc24)-c2ccccc2-3)cc1 [Compound 299107] | 8.13 | 279.99 | 
[Pd].[Pd].[S-]CC[S-].[S-]CC[S-].c1ccc([PH+](c2ccccc2)c2ccccc2)cc1.c1ccc([PH+](c2ccccc2)c2ccccc2)cc1 [Compound 300554] | 0.48 | 8.96 | 
CC(C)[S-].CC(C)[S-].[Pt+2].c1ccc([PH+](c2ccccc2)c2ccccc2)cc1.c1ccc([PH+](c2ccccc2)c2ccccc2)cc1 [Compound 300559] | 0.71 | 4.71 | 
Cc1ccc(NC(=O)c2cc3ccccc3cc2O)c(C)c1.Cc1ccc(NC(=O)c2cc3ccccc3cc2O)c(C)c1.[Mn+2] [Compound 306697] | 1.77 | 19.5 | 
FC(F)(F)c1cc(NC2=NCCN=C(Nc3cc(C(F)(F)F)cc(C(F)(F)F)c3)SS2)cc(C(F)(F)F)c1 [Compound 309898] | 1.07 | 13.68 | 
C[N+]1=C(/C=C/Nc2cc3c4ccccc4ccc3c3ccccc23)C(C)(C)c2ccccc21.[Cl-] [Compound 313162] | 1.07 | 4.03 | 
CN(C)Cc1[c-]c(CN(C)C)ccc1.[Br][Pt] [Compound 315819] | 2.12 | 13.17 | 
Clc1cc[c]([Sb]2([c]3ccc(Cl)cc3)([c]3ccc(Cl)cc3)[O]C(C(Cl)(Cl)Cl)[O]2)cc1 (stereo not drawn) [Compound 316746] | 0.88 | 6.11 | 
[C-]#[O+].[C-]#[O+].[C-]#[O+].[CH3][Sn]([c]1ccccc1)[c]1ccccc1.[Co].c1ccc([PH+](c2ccccc2)c2ccccc2)cc1 [Compound 319697] | 3.1 |  | 
